Experimental data published in US20150216860A1, “THERAPEUTIC AGENT FOR SYSTEMIC BONE DISEASE AND USE THEREOF” (NATIONAL UNIVERSITY CORPORATION NAGOYA INIVERSITY, priority 2013, published 2015).

Legend:
FGFR3 signaling = conditions: cited from earlier work
[1] = test system: HCS-2/8 cells expressing FGFR3-K650E (TD); assay: Growth assay of HCS-2/8 cells expressing FGFR3-K650E; format: cell-based, human; conditions: for integrated intensities of Venus signals: K650E-expressing HCS-2/8, 72 hours
Text: (§1) The pRK7-FGFR3-WT, -K650E, and -K650M vectors expressing wild-type and mutant FGFR3 (Reference 29) were kindly provided by Dr. Pavel Krejci (Medical Genetics Institute, Cedars-Sinai Medical Center, LA). The pRK7-FGFR3-G380R was constructed by the QuikChange site-directed mutagenesis kit (Stratagene). The wild-type and mutant FGFR3 cDNAs were excised from pRK7-FGFR3 vectors by double digestion with HindIII and BamHI. The fragments were cloned into the lentivirus vector, CSII-CMV-MCS-IRES2-Venus using the NheI and BamHI sites. CSII-CMV-MCS-IRES2-Venus was kindly provided by Dr. Hiroyuki Miyoshi (Riken BioResource Center, Tsukuba, Japan.). The HindIII site of the insert and the NheI site of the vector were blunted using Quick Blunting Kit (New England Biolabs) before ligation. HEK293 cells were plated in 150-mm dishes the day before transfection. We introduced the pLP1, pLP2, pLP/VSVG plasmids (ViraPower Packaging Mix, Invitrogen), and the CSII-CMV-MCS-IRES2-Venus vector into HEK293 cells with Lipofectamine 2000 (Invitrogen) according to the manufacturer's protocols. At 48 hours after transfection, we filtered the media containing the virus particles using the Millex-HV 0.45 μm PVDF filters (Millex) and purified lentivirus using two steps of ultracentrifugation (Beckman Coulter). The lentivirus was added to the medium of HCS-2/8 or ATDC5 cells. After 48 hours, we confirmed that more than 90% of cells were positive for Venus signals.
HCS-2/8 (Reference 31) cells were seeded in 96-well tissue culture plates. HCS-2/8 cells were then infected with lentivirus expressing either FGFR3-WT, -K650E, or -K650M. After 48 hours, the numbers of cells were estimated by MTS assay. In addition, ˜1×10^5 HCS-2/8 cells in a 12-well tissue plate were introduced with lentivirus expressing FGFR3-K650E. After 72 hours, the fluorescence intensity of the Venus protein was quantified by the ArrayScan VTI HCS Reader (Thermo Scientific).

ERK1/2 phosphorylation = assay: Western blotting of ERK phosphorylation in FGF2-treated RCS cells; format: cell-based, rat; conditions: 20 μM pretreatment 30 min, 5 ng/ml FGF2 5 min
Protocol: (§2) RCS cells were treated with 20 μM meclizine for 30 min before adding 5 ng/ml FGF2 (“Vehicle” is no treatment group). After 5 min, cells were lysed in the ice-cold RIPA Lysis Buffer (Santa Cruz) supplemented with proteinase inhibitors. Whole cell lysates were separated on SDS-PAGE and transferred to a nitrocellulose membrane. The phosphorylation levels of molecules in the MAPK pathway were determined by Western blotting using the following antibodies: ERK1/2, phospho-ERK1/2(Thr^202/Tyr^204), MEK1/2, and phospho-MEK1/2(Ser^217/221) (Cell Signaling).

[2] = test system: ischemic injury in the brain and heart; conditions: cited from earlier work
embryonic tibiae = assay: Bone explant culture of embryonic tibiae; set-up: species or system mouse; conditions: for longitudinal length of embryonic tibiae with FGF2: FGF2 100 ng/ml, day 6, meclizine 20 μM, CNP 0.2 μM
Protocol: For bone explant culture, tibiae were dissected under the microscope from wild-type mouse embryos on E16.5, placed in 96-well plates, and cultured in α-minimal essential medium (Invitrogen) supplemented with 0.2% bovine serum albumin, 1 mM β-glycerophosphate, and 50 μg/ml ascorbic acid. Embryonic tibiae were further treated with 100 ng/ml FGF2 in the presence or absence of 20 μM meclizine or 0.2 μM CNP for 6 days, then fixed in 10% formaldehyde in phosphate-buffered saline, demineralized with 0.5 M EDTA, and embedded in paraffin. Sections were stained with hematoxylin-eosin and Alcian blue. Images were taken with the SZ61 microscope (Olympus) equipped with the XZ-1 digital camera (Olympus). The longitudinal length of bone, which was defined as the length between proximal and distal articular cartilage, was measured using ImageJ (NIH).

[3] = test system: HCS-2/8 cells expressing FGFR3-K650M (SADDAN); assay: Growth assay of HCS-2/8 cells expressing FGFR3-K650M; format: cell-based, human; conditions: 20 μM
Text: as §1, with “At 48 hours after transfection, we filtered the media containing the virus particles using the Millex-HV 0.45 μm PVDF filters (Millex) and purified lentivirus using two steps of ultracentrifugation (Beckman Coulter). The lentivirus was added to the medium of HCS-2/8 or ATDC5 cells. After 48 hours, we confirmed that more than 90% of cells were positive for Venus signals.” left out
HCS-2/8 (Reference 31) cells were seeded in 96-well tissue culture plates. […] After 72 hours, the fluorescence intensity of the Venus protein was quantified by the ArrayScan VTI HCS Reader (Thermo Scientific).

[4] = test system: RCS cells expressing caMEK; assay: MTS growth assay of RCS cells expressing constitutively active MEK; format: cell-based, rat
Protocol: (§3) RCS cells, which were kindly provided from Dr. Pavel Krejci (Medical Genetics Institute, Cedars-Sinai Medical Center, LA), were cultured in Dulbecco's Modified Eagle's Medium (DMEM, Invitrogen) supplemented with 10% fetal bovine serum (FBS, Thermo Scientific) (Reference 14). For the RCS growth arrest assays, ˜5×10^3 cells were seeded in 96-well culture plates (Falcon) and incubated for 48 hours in the presence of 10 μM of 1,186 FDA-approved chemical compounds (Prestwick Chemical) and 5 ng/ml of FGF2 (R&D Systems). Cell proliferation was quantified by MTS assay (Cell 96 AQueus One Solution Cell Proliferation Assay, Promega) according to the manufacturer's instructions.
(§4) Clones that express constitutively active mutants in the MAPK/ERK pathway, pcDNA4Myc-ERK2(PD), pcDNA3HA-MEK1(DD), and pcDNA3Flag-C-rafΔN (Reference 30), were kindly provided by Dr. Mutsuhiro Takekawa (Medical Science Institute, Tokyo University, Japan). The inserts were digested with BamHI and XhoI, and were cloned into the CSII-CMV-MCS-IRES2-Venus at the BamHI sites after blunting all digested ends. Lentivirus particles were generated as described above and were applied to RCS cells.

[5] = test system: RCS cells expressing caRAF; assay: MTS growth assay of RCS cells expressing constitutively active RAF; format: cell-based, rat
Protocol: as §3, §4

normal mouse [6] = assay: Internal administration to normal mouse from week 2 after birth; format: in vivo; conditions: administered from week 2 after birth, evaluated week 5
Protocol: (§5) Meclizine was internally administered to a normal pregnant mouse from day 14 of pregnancy (2 mg of meclizine is contained in 5 g of feed), and the body length and extremity length of the neonatal mouse on day 5 after birth were evaluated. On the other hand, meclizine was internally administered to a normal mouse from week 2 after birth, and the mouse was evaluated in the same manner on week 5.

FGF2-treated RCS cells [7] = assay: RCS growth arrest assay (MTS); format: cell-based, rat; conditions: for cell toxicity in RCS cells: 50 μM
Protocol: as §3

[8] = test system: Mmp10, Mmp13, and Adamts1 mRNA; assay: Real-time RT-PCR of matrix proteinases in FGF2-treated RCS cells; format: cell-based, rat; conditions: FGF2 four hours; 20 μM meclizine or 0.2 μM CNP
Protocol: Total RNA was isolated from FGF2-treated RCS cells in the presence of 20 μM of meclizine or 0.2 μM of CNP using Trizol. The first strand cDNA was synthesized with ReverTra Ace (Toyobo). We quantified mRNA expression of matrix proteinases (Mmp10, Mmp13, and Adamts1) using LightCycler 480 Real-Time PCR (Roche) and SYBR Green (Takara). The mRNA levels were normalized for that of Gapdh.

FGF2-treated RCS cells [9] = assay: Alcian blue staining of FGF2-treated RCS cells; format: cell-based, rat; conditions: 5 ng/ml FGF2, 72 hours; meclizine 10 μM or 20 μM, CNP 0.2 μM
Protocol: For Alcian blue staining, growing RCS cells in 12-well plates were added with 5 ng/ml FGF2 and also with either 10 μM meclizine or 0.2 μM CNP (Calbiochem). After 72 hours, cells were fixed with methanol for 30 minutes at −20° C., and stained overnight with 0.5% Alcian Blue 8 GX (Sigma) in 1 N HCl. For quantitative analyses, Alcian blue-stained cells were lysed in 200 μl of 6 M guanidine HCl for 6 hours at room temperature (Reference 28). The optical density of the extracted dye was measured at 610 nm using PowerScan 4 (DS Pharma Biomedical).

[10] = test system: RCS cells expressing caERK; assay: MTS growth assay of RCS cells expressing constitutively active ERK; format: cell-based, rat
Protocol: as §3, §4

normal mouse [11] = assay: Internal administration to normal pregnant mouse, neonatal mouse evaluated; format: in vivo; conditions: in feed to pregnant mouse from day 14 of pregnancy, day 5 after birth
Protocol: as §5

[12] = test system: ATDC5 cells expressing FGFR3-G380R (ACH); assay: Micromass culture of ATDC5 cells expressing FGFR3-G380R; format: cell-based, mouse; conditions: six days, 20 μM meclizine
MEK1/2 phosphorylation = assay: Western blotting of MEK phosphorylation in FGF2-treated RCS cells; format: cell-based, rat; conditions: 20 μM pretreatment 30 min, 5 ng/ml FGF2 5 min
Protocol: as §2

Fgfr3^Y367C/+ mice = conditions: subcutaneous administration; cited from earlier work
[13] = in vivo; cited from earlier work
Fgfr3^ach mice = conditions: continuous intravenous infusion; cited from earlier work

O=C(Nc1cc(C(=O)Nc2ccc(S(=O)(=O)O)cc2S(=O)(=O)O)cc(C(=O)Nc2ccc(S(=O)(=O)O)cc2S(=O)(=O)O)c1)Nc1cc(C(=O)Nc2ccc(S(=O)(=O)O)cc2S(=O)(=O)O)cc(C(=O)Nc2ccc(S(=O)(=O)O)cc2S(=O)(=O)O)c1 [NF449]
FGFR3 signaling in RCS chondrocytes (FGFR3 signaling): inhibits FGFR3 signaling

Cc1cccc(CN2CCN(C(c3ccccc3)c3ccc(Cl)cc3)CC2)c1 (stereo not shown) [meclizine, 1-[(4-chlorophenyl)phenylmethyl]-4-[(3-methylphenyl)methyl]piperazine]
cellular toxicity in K650E-expressing HCS-2/8 ([1]; 20 μM): without apparent cellular toxicity | growth arrest of K650E-expressing HCS-2/8 ([1]; 20 μM, 48 hours, MTS assay): partially but significantly rescued the growth arrest | integrated intensities of Venus signals [1]: significantly increased | FGF2-mediated ERK1/2 phosphorylation (ERK1/2 phosphorylation): attenuated | cytoprotective activity against ischemic injury [2]: cytoprotective activities | longitudinal length of embryonic tibiae with FGF2 (embryonic tibiae): significantly attenuated FGF2-mediated growth inhibition | length of tibia without FGF2 treatment (embryonic tibiae; without FGF2, day 6, 20 μM): increased the length of tibia | cellular toxicity in K650M-expressing HCS-2/8 [3]: without apparent cellular toxicity | growth arrest of K650M-expressing HCS-2/8 ([3]; 48 hours, MTS assay): partially but significantly rescued the growth arrest | caMEK-mediated growth inhibition [4]: rescued | caRAF-mediated growth inhibition [5]: rescued | body length (normal mouse [6]): increase | tail length (normal mouse [6]): increase | RCS proliferation, concentration dependence (FGF2-treated RCS cells [7]; 0, 1, 2, 5, 10, 20, and 50 μM, 5 ng/ml FGF2, 48 hours, MTS assay): dose-dependent increases | increase in RCS proliferation (FGF2-treated RCS cells [7]; 10 μM compound, 5 ng/ml FGF2, 48 hours, MTS assay): ≥ 1.4 fold | cell toxicity in RCS cells (FGF2-treated RCS cells [7]): cell toxicity was evident | cell toxicity in RCS cells (FGF2-treated RCS cells [7]; listed as Meclizine): slight toxicity | expressions of Mmp10, Mmp13, and Adamts1 [8]: significantly suppressed | Alcian blue staining and chondrocyte-like cell shape (FGF2-treated RCS cells [9]): restored | caERK-mediated growth inhibition [10]: had no effect | body length of neonatal mouse (normal mouse [11]): increase | length of superior and inferior limbs of neonatal mouse (normal mouse [11]): increase | levels of glycosaminoglycans (Alcian blue, 610 nm absorbance) [12]: significantly increased the levels of glycosaminoglycans | MEK1/2 phosphorylation (MEK1/2 phosphorylation): remained unchanged

BMN111: CNP analog with extended plasma half-life (PGQEHPNARKYKGANKKGLSKGCFGLKLDRIGSMSGLGC; chains of the INN, looked up)
bone growth in Fgfr3^Y367C/+ mice (Fgfr3^Y367C/+ mice): significant recovery of bone growth | plasma half-life [13]: extended

CNP: C-type natriuretic peptide, potent antagonist of FGFR3 signaling, used as positive control
integrated intensities of Venus signals [1]: increased the integrated Venus signal intensities | longitudinal length of embryonic tibiae with FGF2 (embryonic tibiae): significantly attenuated FGF2-mediated growth inhibition | expressions of Mmp10, Mmp13, and Adamts1 [8]: significantly suppressed | Alcian blue staining and chondrocyte-like cell shape (FGF2-treated RCS cells [9]): approximated that of FGF2-negative cells | dwarfism of Fgfr3^ach mice (Fgfr3^ach mice): successfully normalized the dwarfism | half-life [13]: very short | levels of glycosaminoglycans (Alcian blue, 610 nm absorbance) [12]: increased the Alcian blue staining
